Paper PMC6133773 (The Journal of organic chemistry, 2018)

Key:
IspD [1] = molecular target: T1, IspD (Escherichia coli, UniProt Q46893); experiment: MESG coupled pyrophosphate assay, inhibition of MEP turnover; assay type: biochemical
T1 sequence (Q46893 2-236): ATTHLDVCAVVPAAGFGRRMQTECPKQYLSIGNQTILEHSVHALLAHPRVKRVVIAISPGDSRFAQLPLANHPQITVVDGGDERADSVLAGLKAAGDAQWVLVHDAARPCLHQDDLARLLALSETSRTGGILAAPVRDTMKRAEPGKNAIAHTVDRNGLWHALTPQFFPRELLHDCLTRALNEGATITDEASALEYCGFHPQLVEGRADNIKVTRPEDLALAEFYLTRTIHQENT

IspD [2] = molecular target: T2, IspD (Plasmodium falciparum, UniProt Q8I273); experiment: as above; assay type: biochemical
T2 sequence (Q8I273 60-734): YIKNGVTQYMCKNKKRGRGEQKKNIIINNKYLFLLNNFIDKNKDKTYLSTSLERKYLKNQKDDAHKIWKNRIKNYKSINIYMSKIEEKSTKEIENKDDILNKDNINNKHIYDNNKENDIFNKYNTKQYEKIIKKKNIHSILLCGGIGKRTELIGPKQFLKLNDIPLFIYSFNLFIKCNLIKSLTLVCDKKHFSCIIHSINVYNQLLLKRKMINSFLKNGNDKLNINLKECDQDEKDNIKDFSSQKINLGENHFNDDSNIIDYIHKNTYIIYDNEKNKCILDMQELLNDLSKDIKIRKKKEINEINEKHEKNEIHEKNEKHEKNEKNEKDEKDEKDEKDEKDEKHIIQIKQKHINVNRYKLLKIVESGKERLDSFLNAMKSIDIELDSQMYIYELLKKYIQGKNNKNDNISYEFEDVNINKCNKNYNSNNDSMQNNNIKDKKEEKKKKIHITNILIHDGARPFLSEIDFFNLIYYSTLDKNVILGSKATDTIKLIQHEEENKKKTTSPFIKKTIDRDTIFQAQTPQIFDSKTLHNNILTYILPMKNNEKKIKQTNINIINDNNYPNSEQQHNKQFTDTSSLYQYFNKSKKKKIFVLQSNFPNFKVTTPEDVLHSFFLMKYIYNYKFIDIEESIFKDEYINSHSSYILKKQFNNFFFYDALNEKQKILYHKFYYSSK

C[C@](O)(CO)[C@H](O)C[C@@H](F)P(=O)(O)O [5b, (5S)-D-methylerythritol monofluoromethyl phosphonate]
IC50 (IspD [1]): 700 ± 100 µM | IC50 (IspD [2]): 1300 ± 700 µM
